Measurements: US6486096B1, “Herbicidal compositions with acylated aminophenylsulfonylureas” (priority 1998, dated 2002)
Several values for one entry are separate records, joined by “and”; a condition that tells them apart may be missing. Identical values can stand only once. Like-named read-outs stand apart in the source and are kept apart here.

Key:
Type in all cases: in vivo
[1] = system: ABUTH = Abutilon theophrasti; experiment: Herbicidal action, visual scoring; details: Table 2; scoring 3 weeks after application; (pe) pre-emergence, (po) post-emergence; g of A.S./ha by row: r6 35 (po), r7 1120 + 1120 (pe), r9 (1120 + 1120) (pe) + 35 (po)
Description: (§1) The herbicidal activity of the active substances or active substance mixtures was scored visually with the aid of the treated parcels in comparison with untreated control parcels. Damage to and development of all above-ground parts of plants was recorded here. Scoring was carried out on a percentage scale (100% action=all plants died; 50% action=50% of the plants and green plant parts died; 0% action=no discernible action=like control parcels. The mean of the scoring values of 4 parcels in each case was taken.
(§2) Seeds or rhizome pieces of monocotyledonous and dicotyledonous weeds are placed in sandy loam soil in pots, covered with soil and grown in the greenhouse under good growth conditions (temperature, humidity, water supply). Three weeks after sowing, the test plants in the three-leaf stage are treated with the compositions according to the invention. The compositions according to the invention which are formulated as wettable powders or as emulsion concentrates are sprayed in various dosages on the green parts of the plants at an application rate of 600 to 800 l of water/ha (converted). After the test plants have remained in the greenhouse for about 3 to 4 weeks under optimal growth conditions, the effect of the products is scored visually by comparison with untreated controls. When applied post-emergence, too, the compositions according to the invention have a good herbicidal activity against a broad spectrum of economically important grass weeds and broad-leaved weeds.
(§3) Crop plants were raised outdoors under natural outdoor conditions on plots in which seeds or rhizome sections of typical harmful plants had been sown or the natural weed infestation was used. The treatment with the compositions according to the invention was carried out after the emergence of the harmful plants and the crop plants, as a rule in the 2 to 4-leaf stage; in some cases (as indicated) the application of individual active substances or active substance combinations was carried out pre-emergence (cf. Example 1) or as a sequence treatment, in some cases pre-emergence and/or post-emergence.
(§4) After the application, e.g. 2, 4, 6 and 8 weeks after application, the action of the preparations was scored visually in comparison with untreated controls (cf. score in Example 1). […] The crop plants, however, were not damaged or were only insignificantly damaged as a result of the treatment with the herbicidal compositions.

Avena sterilis = experiment: Herbicidal action, visual scoring; details: Table 8; post-emergence; scoring 46 days after application; g of A.S./ha by row: r7 60, r8 270, r9 450, r10 60 + 270
Description: as §1, §2, §3, §4

Chrysanthemum coronarium = experiment: Herbicidal action, visual scoring; details: Table 8; post-emergence; scoring 46 days after application; g of A.S./ha by row: r7 60, r8 270, r9 450, r10 60 + 270
Description: as §1, §2, §3, §4

[2] = system: EPHHL = Euphorbia heterophylla; experiment: Herbicidal action, visual scoring; details: Table 13, post-emergence, scoring 3 weeks after application, g of A.S./ha by row: r7 30, r8 100, r9 150, r10 30 + 50
Description: as §1, §2, §3, §4

[3] = system: IPOPU = Ipomoea purpureum; experiment: Herbicidal action, visual scoring; details: Table 3, post-emergence, scoring 6 weeks after application, g of A.S./ha 15, 30, 45, 60, 300, 30 + 300
Description: as §1, §2, §3, §4

[4] = system: PHBPU = Pharbitis purpurea; experiment: Herbicidal action, visual scoring; details: Table 2; scoring 3 weeks after application; (pe) pre-emergence, (po) post-emergence; g of A.S./ha by row: r6 35 (po), r7 1120 + 1120 (pe), r9 (1120 + 1120) (pe) + 35 (po)
Description: as §1, §2, §3, §4

SOLNI = experiment: Herbicidal action, visual scoring; details: Table 10, post-emergence, scoring 3 weeks after application, g of A.S./ha by row: r7 120, r8 60, r9 30, r10 15, r11 12, r12 6, r13 3, r14 30 + 6, r16 15 + 6, r18 30 + 3
Description: as §1, §2, §3, §4

[5] = system: XANOR (Xanthium orientalis); experiment: Herbicidal action, visual scoring; details: Table 10, post-emergence, scoring 3 weeks after application, g of A.S./ha by row: r7 120, r8 60, r9 30, r10 15, r20 2000, r21 1000, r22 500, r23 30 + 1000, r25 15 + 1000, r27 30 + 500
Description: as §1, §2, §3, §4

Brachiaria plantophylla = experiment: Herbicidal action, visual scoring; details: Table 24; post-emergence; scoring 6 weeks after application; g of A.S./ha by row: r6 45, r7 22.5, r8 60, r9 30, r11 22.5 + 30, r13 60, r14 30, r16 22.5 + 30, r18 450, r20 22.5 + 450
Description: as §1, §2, §3, §4

rice = experiment: Damage on crop plants (selectivity), visual scoring; details: Table 24; post-emergence; scoring 6 weeks after application; g of A.S./ha by row: r6 45, r7 22.5, r8 60, r9 30, r11 22.5 + 30, r13 60, r14 30, r16 22.5 + 30, r18 450, r20 22.5 + 450
Description: as §1, §3
(§5) After the application, e.g. 2, 4, 6 and 8 weeks after application, the action of the preparations was scored visually in comparison with untreated controls (cf. score in Example 1). […]

[6] = system: Sethoxidime-resistant corn (SR); experiment: as above; details: Table 22, post-emergence, scoring 4 weeks after application, g of A.S./ha by row: r7 50, r8 25, r9 12.5, r10 400, r11 200, r12 100, r13 12.5 + 100, r14 12.5 + 200, r15 25 + 100
Description: as §1, §3, §5

[7] = system: CHEAL = Chenopodium album; experiment: Herbicidal action, visual scoring; details: Table 4; post-emergence; scoring 40 days after application; g of A.S./ha: 30, 45, 60, 300, 45 + 300
Description: as §1, §2, §3, §4

SIDSP = Sida spinosa = experiment: Herbicidal action, visual scoring; details: post-emergence
Description: as §1, §2, §3, §4

[8] = system: POLCO = Polygonum convolvulus; experiment: Herbicidal action, visual scoring; details: Table 4; post-emergence; scoring 40 days after application; g of A.S./ha: 30, 45, 60, 300, 45 + 300
Description: as §1, with “taken. […]” for “taken.”
as §3, §4

corn = details: post-emergence
Description: as §1, §3, §4

AGRRE = Agropyron repens = experiment: Herbicidal action, visual scoring; details: Table 6, post-emergence, scoring 3 weeks after application, g of A.S./ha by row: r6 30, r7 45, r8 60, r9 2.5, r10 5, r11 7.5, r12 30 + 2.5, r13 30 + 5
Description: as §1, §2, §3, §4

[9] = system: ECHCG = Echinochloa crus-galli; experiment: Herbicidal action, visual scoring; details: Table 12, post-emergence, scoring 3 weeks after application, g of A.S./ha by row: r6 120, r7 60, r8 30, r9 15, r10 1000, r11 500, r12 250, r13 30 + 500, r14 30 + 250, r15 15 + 250, r16 40, r17 20, r18 10, r19 30 + 20, r20 15 + 20, r21 30 + 10, r22 200, r23 100, r24 50, r25 30 + 100, r26 15 + 100, r27 30 + 50
Description: as §1, §2, §3, §4

[10] = Table 3, scoring 6 weeks after application, g of A.S./ha 15, 30, 45, 60, 300, 30 + 300
[11] = Table 5, scoring 3 weeks after application, g of A.S./ha by row: r6 15, r7 30, r8 45, r9 60, r10 900, r11 30 + 900

COc1cc(OC)nc(NC(=O)NS(=O)(=O)c2cc(NC=O)ccc2C(=O)N(C)C)n1 [(A1.1), N-[N-(4,6-dimethoxypyrimidin-2-yl)aminocarbonyl]-2-(dimethylaminocarbonyl)-5-(formylamino)benzenesulfonamide]
Herbicidal action ABUTH [1]: 88%
Herbicidal action against Avena sterilis (Avena sterilis): 83%
Herbicidal action against Chrysanthemum coronarium (Chrysanthemum coronarium): 20%
Herbicidal action EPHHL [2]: 70%
Herbicidal action IPOPU ([3]; 15 g of A.S./ha): 43%
Herbicidal action IPOPU ([3]; 30 g of A.S./ha): 67%
Herbicidal action IPOPU ([3]; 45 g of A.S./ha): 70%
Herbicidal action IPOPU ([3]; 60 g of A.S./ha): 83%
Herbicidal action PHBPU [4]: 45%
Herbicidal action SOLNI (SOLNI; 15 g active substance per ha): 65%
Herbicidal action SOLNI (SOLNI; 30 g active substance per ha): 83%
Herbicidal action SOLNI (SOLNI; 60 g active substance per ha): 90%
Herbicidal action SOLNI (SOLNI; 120 g active substance per ha): 90%
Herbicidal action XANOR ([5]; 15 g active substance per ha): 45%
Herbicidal action XANOR ([5]; 30 g active substance per ha): 55%
Herbicidal action XANOR ([5]; 120 g active substance per ha): 60%

CS(=O)(=O)c1ccc(C(=O)C2C(=O)CCCC2=O)c([N+](=O)[O-])c1 [(B1.4.4), 2-(4-Mesyl-2-nitrobenzoyl)cyclohexane-1,3-dione]
Herbicidal action EPHHL ([2]; 100 g of active substance per ha): 63%
Herbicidal action EPHHL ([2]; 150 g of active substance per ha): 73%

COP(=S)(OC)SCC(=O)N(c1ccc(Cl)cc1)C(C)(C)C [(B1.6.11), anilofos]
Herbicidal action Brachiaria plantophylla (Brachiaria plantophylla): 35%
Damage on rice (rice): 8%

CCC/C(=N\OCC)C1=C(O)CC(CC(C)SCC)CC1=O (stereo not shown) [(B1.6.33), sethoxydim]
Damage on corn (SR) [6]: 3% and 2% and 0%

N#Cc1cc(Br)c(O)c(Br)c1 [(B2.2.1), bromoxynil]
Herbicidal action CHEAL [7]: 75%
Herbicidal action IPOPU [3]: 53%
Herbicidal action SIDSP (SIDSP = Sida spinosa; [10]): 70%
Herbicidal action POLC0 [8]: 45%
Damage on corn (corn; [10]): 0%
Damage on corn (corn; Table 4, scoring 40 days after application, g of A.S./ha: 30, 45, 60, 300, 45 + 300): 0%

CCCCCCCCSC(=O)Oc1cc(Cl)nnc1-c1ccccc1 [(B2.3.3), pyridate]
Herbicidal action against SIDSP (SIDSP = Sida spinosa; [11]): 10%
Damage on corn (corn; [11]): 0%

COc1nc(C)nc(NC(=O)NS(=O)(=O)c2cc(I)ccc2C(=O)O)n1 [(B2.4.4), iodosulfuron]
Herbicidal action against AGRRE (AGRRE = Agropyron repens; 2.5 g of A.S./ha): 0%
Herbicidal action against AGRRE (AGRRE = Agropyron repens; 5 g of A.S./ha): 10%

CC(C)N.O=C(O)CNCP(=O)(O)O [(B3.2.1), glyphosate-isopropylammonium]
Herbicidal action ECHCG ([9]; 250 g active substance per ha): 73%
Herbicidal action ECHCG ([9]; 500 g active substance per ha): 83%
Herbicidal action ECHCG ([9]; 1000 g active substance per ha): 98%
